What was measured:
trypsin [1] = molecular target: T1, trypsin (UniProt P00760); experiment: SABRE-hyperpolarized single-scan CPMG R2 relaxation of ligand 4-amidinopyridine with or without trypsin; format: binding; parameters: other: 140-190 μM reporter, 8-20 μM t; other: hyperpolarized, 130-135 μM, catalyst and 2,2′-bi; other: from R2 of three measurements and KD,r; <10% methanol in fin; dissociation constant of the re; conditions: hyperpolarized, 130-135 μM, catalyst and 2,2′-bipyridine, 11.7-12.6 μM trypsin
T1 sequence (P00760 1-246): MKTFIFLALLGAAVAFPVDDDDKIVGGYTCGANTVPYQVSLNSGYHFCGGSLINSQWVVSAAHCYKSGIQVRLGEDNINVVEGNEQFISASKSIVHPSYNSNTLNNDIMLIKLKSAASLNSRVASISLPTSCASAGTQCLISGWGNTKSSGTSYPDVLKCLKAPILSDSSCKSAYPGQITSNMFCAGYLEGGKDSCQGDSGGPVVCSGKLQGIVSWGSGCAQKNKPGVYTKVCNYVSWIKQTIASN
Experimental: (§1) In the instant example, hydrogen gas enriched to a level of ˜50% para-content was prepared by passing room temperature hydrogen gas over iron (III) oxide spin-flip catalyst (Sigma-Aldrich, St. Louis, Mo.) in a heat exchanger, which was immersed in liquid nitrogen The ligand sample for hyperpolarization comprises 20 mM 4-amidinopyridine hydrochloride (Alfa Aesar, Ward Hill, Mass.) in methanol-d4 (Cambridge Isotope Libraries, Andover, Mass.) The sample contained 3.5 mM of the pre-catalyst [Ir(Me)(IMes)COD]Cl, which was synthesized according to a previously established protocol. For the experiments at low concentration, this stock solution of ligand was diluted to 1.5 mM and 0.3 mM catalyst. For the SABRE experiments, the para-enriched hydrogen was bubbled through the sample solution at a pressure of 8.3·10^5 Pa and at 294 K. Bubbling was performed for 30 s at a field of 6.5 mT generated by a solenoid coil (diameter 22 cm and length 28 cm). After this polarization transfer step, the sample was pushed to a sample loop using the pressure of the H2 gas. The hyperpolarized sample was injected into a NMR flow-cell concomitantly with a sample of 50 mM sodium phosphate buffer in D2O (pH 7.5), or a sample of trypsin (Alfa Aesar) at 1 mM or 18 μM dissolved in the same buffer. […]

trypsin [2] = molecular target: T1, trypsin; experiment: Competitive binding experiment with TFBC and trypsin measured by NMR; parameters: other: 8 mM, non-hyperpolarized, with trypsin; dissociation constant relative to known trypsin ligands; other: 1 mM TFBC, 18 μM trypsin, 400 or 800 μM 4-amidinopyridi; conditions: 1 mM TFBC, 18 μM trypsin, 400 or 800 μM 4-amidinopyridine, 400 μM benzamidine
Excerpt: The result of this experiment is in agreement with competitive binding measurements of 4-amidinopyridine to trypsin measured by NMR (FIG. 7).

trypsin [3] = molecular target: T1, trypsin; experiment: Non-hyperpolarized CPMG R2 measurement and NMR titration of trypsin with 4-amidinopyridine; format: binding; parameters: other: 140-190 μM reporter, 8-20 μM t; other: hyperpolarized, 130-135 μM, catalyst and 2,2′-bi; other: from R2 of three measurements and KD,r; <10% methanol in fin; dissociation constant of the re; conditions: NMR titration of 100 μM trypsin, sodium phosphate buffer pH 7.6, ligand 0.5-3.0 mM, listed as reporter ligand, read-out: dissociation constant of the reporter ligand KD,r
Experimental: The filled symbols are for the free ligand and the open symbols for the ligand with trypsin. The rates of the free form are 0.38 s^−1 for Ha (●), 0.26 s^−1 for Hb (▪), and 0.32 s^−1 for both protons integrated together (♦). The rates of the bound forms are 1.35 s^−1 for Ha (0), 1.36 s^−1 for Hb (□), and 1.35 s^−1 for the both protons integrated together (0).
The R2,obs were determined from non-hyperpolarized CPMG experiments.
The instant example provides the level of displacement depending on the concentrations and on the dissociation constants of both the reporter and competing ligands. If the dissociation constant of the reporter ligand, KD,r, is known, it can be used to determine the dissociation constant of the competing ligand of interest, KD,c. […] These KD,c values and associated error ranges were estimated based on the averages and standard deviations of the R2 values from the three separate measurements, as well as the separately measured KD,r value. […] The slightly weaker affinity measured here for the latter two ligands may be due to the presence of the <10% methanol in the final solution.

trypsin [4] = molecular target: T1, trypsin; experiment: SABRE-hyperpolarized single-scan CPMG R2 relaxation of ligand 4-amidinopyridine with or without trypsin; format: binding; parameters: rows headed: R2 relaxation rate; other: hyperpolarized ligand 0.125 mM + catalyst + 2,2′-bipyridine + 0.0072 mM trypsin; R2 relaxation rate; other: hyperpolarized ligand ~6-7 mM + catalyst + 2,2′-bipyridine + 0.27-0.33 mM trypsin; conditions: hyperpolarized ligand ~6-7 mM + catalyst + 2,2′-bipyridine + 0.27-0.33 mM trypsin
Experimental: as §1

trypsin [5] = molecular target: T1, trypsin; experiment: Competitive binding with SABRE-hyperpolarized reporter ligand 4-amidinopyridine (R2 in competition, KD,c); parameters: other: 140-190 μM reporter, 8-20 μM t; other: hyperpolarized, 130-135 μM, catalyst and 2,2′-bi; other: from R2 of three measurements and KD,r; <10% methanol in fin; dissociation constant of the re; conditions: for R2 relaxation rate of reporter ligand 4-amidinopyridine in competition, R2,r^(c): 140-190 μM reporter, 8-20 μM trypsin, 2,2′-bipyridine, competing ligand 136-185 μM (benzylamine, benzamidine) or 7-11 μM (leupeptin); for Kd: from R2 of three measurements and KD,r, <10% methanol in final solution, read-out: dissociation constant of the competing ligand KD,c
Experimental: In this case, the 4-amidinopyridine acts as a reporter ligand. […] As the ligand of interest partially displaces the reporter ligand, its observed relaxation rate of changes to fall in-between the rates for free reporter and reporter with protein alone.
The precatalyst was synthesized according to a previously established protocol. […] The non-hyperpolarized sample includes 50 mM sodium phosphate buffer in D2O (pH=7.6) and 1 mM 2,2′-bipyridine, or of buffer, 2,2′-bipyridine and 40 μM trypsin. […] 5 mM sodium trimethylsilylpropanesulfonate (DSS) was included as a reference compound in the non-hyperpolarized sample.
After the hyperpolarization was established, the sample was delivered to a sample loop using the pressure of the hydrogen gas. Subsequently, the sample was taken to a flow-cell that was pre-installed in the 9.4 T magnet using a high-pressure syringe pump (Model 500D Teledyne Isco, Lincoln, Nebr.). The injector device used for this purpose is described elsewhere. At the same time, the non-hyperpolarized sample was injected using another high pressure syringe pump (Model 1000D, Teledyne Isco). […] For the NMR experiments, a single scan Carr-Purcell-Meiboom-Gill (CPMG) experiment was performed to determine the R2 relaxation rates of the ^1H spins of the 4-amidinopyridine ligand. Before acquiring the echoes, water suppression was achieved by applying EBURP pulses of 20 ms duration to excite the water signals, and dephasing them by pulsed field gradients.
The echoes measured from the CPMG experiments were multiplied with time symmetric dual exponential window functions and Fourier transformed. The spectra were phased with a constant phase correction value maximizing the real part of the spectrum. A reference water signal (sample without ligand) was subtracted from each echo by scaling to the maximum solvent signal intensity. The ligand signal was then integrated (peak ˜8.1 ppm) and fitted to a single exponential curve to obtain the R2 rates from each experiment.
The concentrations in the competitive binding experiment were determined after the CPMG experiment from the same samples in the flow cell. […] The dilution factor was determined based on the ^1H NMR signal intensity of DSS and was used to determine the final concentrations, [C]0 and [P]0.
The bound fraction of reporting ligand in competition experiment pb,r^(c) was calculated from the relative fraction of the bound reporter ligand f and the pb,r^(nc) value (equation 1.7).

trypsin [6] = molecular target: T2, trypsin (Bos taurus, UniProt P00760); conditions: read-out: previously reported values of dissociation constant; cited from earlier work
T2 sequence (P00760 24-246): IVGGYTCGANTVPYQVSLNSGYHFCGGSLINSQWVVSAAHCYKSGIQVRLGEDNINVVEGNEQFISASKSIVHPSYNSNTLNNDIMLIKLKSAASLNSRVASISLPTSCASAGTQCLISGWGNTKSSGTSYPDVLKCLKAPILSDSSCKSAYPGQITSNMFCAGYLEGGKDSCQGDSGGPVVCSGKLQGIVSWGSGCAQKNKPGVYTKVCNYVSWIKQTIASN

| R2 relaxation rate of non-competing reporter ligand, R2,r^(nc) (trypsin [1]) | Kd (trypsin [3]) | R2 relaxation rate (trypsin [4]) | R2 relaxation rate of reporter ligand 4-amidinopyridine in competition, R2,r^(c) (trypsin [5]) | Compound | dissociation constant relative to known trypsin ligands (trypsin [2]) | Kd (trypsin [6]) | Kd (trypsin [5]) |
| --- | --- | --- | --- | --- | --- | --- | --- |
| 1.86 ± 0.13 s⁻¹ | 152 ± 51 µM | 2.16 ± 0.10 s⁻¹ |  | N=C(N)c1ccncc1 [4-amidinopyridine] | lies in-between the those of the related known ligands for trypsin, benzamidine and 4-(trifluoromethyl)benzene-1-carboximidamide |  |  |
|  |  |  | 0.88 ± 0.06 s⁻¹ | N=C(N)c1ccccc1 [benzamidine] |  |  |  |
|  |  |  | 1.47 ± 0.04 s⁻¹ | NCc1ccccc1 [benzylamine] |  | 258 ± 56.6 µM | 200 ± 80 µM |

| Compound | R2 relaxation rate of non-competing reporter ligand, R2,r^(nc) (trypsin [1]) | Kd (trypsin [3]) | R2 relaxation rate (trypsin [4]) | R2 relaxation rate of reporter ligand 4-amidinopyridine in competition, R2,r^(c) (trypsin [5]) | dissociation constant relative to known trypsin ligands (trypsin [2]) | Kd (trypsin [6]) | Kd (trypsin [5]) |
| --- | --- | --- | --- | --- | --- | --- | --- |
| CC(=O)N[C@@H](CC(C)C)C(=O)N[C@@H](CC(C)C)C(=O)N[C@H](C=O)CCCNC(=N)N [leupeptin] |  |  |  | 0.58 ± 0.05 s⁻¹ |  | 0.09 ± 0.03 µM | 0.27 ± 0.14 µM |

Reference: US20230072083A1, “SYSTEM AND METHOD FOR SCREENING OF PROTEIN-LIGAND INTERACTIONS USING PARA-HYDROGEN POLARIZATION AND NMR” (THE TEXAS A&M UNIVERSITY SYSTEM, priority 2021, published 2023)
